Experimental data reported in patent publication US8067542B1 (priority 2003, dated 2011).
Like-named read-outs stand apart in the source and are kept apart here.

How the values were obtained:
Fusarium graminearum [1] = type: cell-based
Verticillium dahliae [2] = type: cell-based
Verticillium dahliae [3] = conditions: plants expressing AlfAFP; cited from earlier work
Fusarium graminearum [4] = conditions: cited from earlier work
[5] = High Ionic Strength Media (50 mM K+, 1 mM Ca2+)

Substance	minimun concentration of protein required to inhibit fungal growth (Fusarium graminearum [1]; [5])	minimun concentration of protein required to inhibit fungal growth (Fusarium graminearum [1]; Standard Media) [ppm]	minimum concentration of protein required to inhibit fungal growth (Verticillium dahliae [2]; [5]) [ppm]	minimum concentration of protein required to inhibit fungal growth (Verticillium dahliae [2]; Standard Media) [ppm]	agronomic effect on potato tuber size (Verticillium dahliae [3])	protection of plants infected with Fusarium head blight (Fusarium graminearum [4])
Alf - wt: native alfalfa antifungal protein (plant defensin from Medicago sativa seeds), SEQ ID NO:2 (RTCENLADKYRGPCFSGCDTHCTTKENAVSGRCRDDFRCWCTKRC; listed as Medicago sativa)	15-20 ppm	10	15	5	reduction in potato tuber size	unable to provide an adequate level of protection
Alf3: AlfAFP variant: AsnTyr inserted between C33 and R34 (RTCENLADKYRGPCFSGCDTHCTTKENAVSGRCNYRDDFRCWCTKRC; listed as Medicago sativa)	>>>20 ppm	20	–	–	–	–
